Test results published in ChEMBL document CHEMBL2203211, “Isocytosine-based inhibitors of xanthine oxidase: design, synthesis, SAR, PK and in vivo efficacy in rat model of hyperuricemia” (Bioorg Med Chem Lett, 2012).
Each block holds one molecule with its values, some of them ahead of it. Active and inactive are the calls of the source. No cut-off for these calls is given here.

Columns and labels:
[1] = target: Xanthine dehydrogenase/oxidase (Homo sapiens, UniProt P47989)
Description: Inhibition of xanthine oxidase using xanthine as substrate at 30 mins by spectrophotometric analysis

[2] = Tmax in rat at 50 mg/kg, ip; format: ADME, organism-based; set-up: dose 50 mg/kg, route intraperitoneal; details: in vivo
[3] = Half life in rat at 100 mg/kg, po; format: ADME, organism-based; set-up: dose 100 mg/kg, route oral; details: in vivo
[4] = AUC (0 to infinity) in rat at 100 mg/kg, po; format: ADME, organism-based; set-up: time infinity, dose 100 mg/kg, route oral; details: plasma
[5] = AUClast in rat at 100 mg/kg, po; format: ADME, organism-based; set-up: time 0 - last, dose 100 mg/kg, route oral; details: plasma
[6] = Cmax in rat at 100 mg/kg, po; format: ADME, organism-based; set-up: dose 100 mg/kg, route oral; details: in vivo
[7] = Tmax in rat at 100 mg/kg, po; format: ADME, organism-based; set-up: dose 100 mg/kg, route oral; details: in vivo
[8] = AUC (0 to infinity) in rat at 50 mg/kg, ip; format: ADME, organism-based; set-up: time infinity, dose 50 mg/kg, route intraperitoneal; details: plasma
[9] = Half life in rat at 50 mg/kg, ip; format: ADME, organism-based; set-up: dose 50 mg/kg, route intraperitoneal; details: in vivo
[10] = Cmax in rat at 50 mg/kg, ip; format: ADME, organism-based; set-up: dose 50 mg/kg, route intraperitoneal; details: in vivo
[11] = AUClast in rat at 50 mg/kg, ip; format: ADME, organism-based; set-up: time 0 - last, dose 50 mg/kg, route intraperitoneal; details: plasma
Rattus norvegicus [12] = test: Antihyperuricemic activity in fasted rat assessed as reduction in potassium oxonate-induced uric acid level in serum at 200 mg/kg, po administered 1 hr post potassium oxonate-challenge relative to vehicle-treated control; format: functional, organism-based; set-up: dose 200 mg/kg
Rattus norvegicus [13] = test: Antihyperuricemic activity in fasted rat assessed as reduction in potassium oxonate-induced uric acid level in serum at 100 mg/kg, ip administered 1 hr post potassium oxonate-challenge relative to vehicle-treated control; format: functional; set-up: scale not given: the % may be the effect or the level left; details: route intraperitoneal
Rattus norvegicus [14] = test: Antihyperuricemic activity in fasted rat assessed as reduction in potassium oxonate-induced uric acid level in serum at 100 mg/kg, po administered 1 hr post potassium oxonate-challenge relative to allopurinol; format: functional
Rattus norvegicus [15] = test: Antihyperuricemic activity in fasted rat assessed as reduction in potassium oxonate-induced uric acid level in serum at 100 mg/kg, po administered 1 hr post potassium oxonate-challenge relative to vehicle-treated control; format: functional; set-up: scale not given: the % may be the effect or the level left
[16] = Clearance in rat at 2 mg/kg, iv; format: ADME, organism-based; set-up: dose 2 mg/kg, route intravenous; details: in vivo
[17] = Initial plasma concentration in rat at 2 mg/kg iv; format: ADME, organism-based; set-up: dose 2 mg/kg, route intravenous
[18] = Volume of distribution in rat at 2 mg/kg, iv; format: ADME, organism-based; set-up: dose 2 mg/kg, route intravenous; details: in vivo
[19] = Half life in rat at 2 mg/kg, iv; format: ADME, organism-based; set-up: dose 2 mg/kg, route intravenous; details: in vivo
[20] = AUClast in rat at 2 mg/kg, iv; format: ADME, organism-based; set-up: time 0 - last, dose 2 mg/kg, route intravenous; details: plasma
[21] = AUC (0 to infinity) in rat at 2 mg/kg, iv; format: ADME, organism-based; set-up: time infinity, dose 2 mg/kg, route intravenous; details: plasma
[22] = Cmax in rat at 2 mg/kg, iv; format: ADME, organism-based; set-up: dose 2 mg/kg, route intravenous; details: in vivo
[23] = Tmax in rat at 2 mg/kg, iv; format: ADME, organism-based; set-up: dose 2 mg/kg, route intravenous; details: in vivo
[24] = Half life in rat at 10 mg/kg, po; format: ADME, organism-based; set-up: dose 10 mg/kg, route oral; details: in vivo
[25] = AUC (0 to infinity) in rat at 10 mg/kg, po; format: ADME, organism-based; set-up: time infinity, dose 10 mg/kg, route oral; details: plasma
[26] = Cmax in rat at 10 mg/kg, po; format: ADME, organism-based; set-up: dose 10 mg/kg, route oral; details: in vivo
[27] = AUClast in rat at 10 mg/kg, po; format: ADME, organism-based; set-up: time 0 - last, dose 10 mg/kg, route oral; details: plasma
[28] = Tmax in rat at 10 mg/kg, po; format: ADME, organism-based; set-up: dose 10 mg/kg, route oral; details: in vivo
Rattus norvegicus [29] = test: Antihyperuricemic activity in fasted rat assessed as reduction in potassium oxonate-induced uric acid level in serum at 10 mg/kg, po administered 1 hr post potassium oxonate-challenge relative to vehicle-treated control; format: functional; set-up: scale not given: the % may be the effect or the level left
Rattus norvegicus [30] = test: Antihyperuricemic activity in fasted rat assessed as reduction in potassium oxonate-induced uric acid level in serum at 50 mg/kg, ip administered 1 hr post potassium oxonate-challenge relative to vehicle-treated control; format: functional; set-up: scale not given: the % may be the effect or the level left; details: route intraperitoneal

Xanthine dehydrogenase/oxidase, sequence (P47989 whole entry): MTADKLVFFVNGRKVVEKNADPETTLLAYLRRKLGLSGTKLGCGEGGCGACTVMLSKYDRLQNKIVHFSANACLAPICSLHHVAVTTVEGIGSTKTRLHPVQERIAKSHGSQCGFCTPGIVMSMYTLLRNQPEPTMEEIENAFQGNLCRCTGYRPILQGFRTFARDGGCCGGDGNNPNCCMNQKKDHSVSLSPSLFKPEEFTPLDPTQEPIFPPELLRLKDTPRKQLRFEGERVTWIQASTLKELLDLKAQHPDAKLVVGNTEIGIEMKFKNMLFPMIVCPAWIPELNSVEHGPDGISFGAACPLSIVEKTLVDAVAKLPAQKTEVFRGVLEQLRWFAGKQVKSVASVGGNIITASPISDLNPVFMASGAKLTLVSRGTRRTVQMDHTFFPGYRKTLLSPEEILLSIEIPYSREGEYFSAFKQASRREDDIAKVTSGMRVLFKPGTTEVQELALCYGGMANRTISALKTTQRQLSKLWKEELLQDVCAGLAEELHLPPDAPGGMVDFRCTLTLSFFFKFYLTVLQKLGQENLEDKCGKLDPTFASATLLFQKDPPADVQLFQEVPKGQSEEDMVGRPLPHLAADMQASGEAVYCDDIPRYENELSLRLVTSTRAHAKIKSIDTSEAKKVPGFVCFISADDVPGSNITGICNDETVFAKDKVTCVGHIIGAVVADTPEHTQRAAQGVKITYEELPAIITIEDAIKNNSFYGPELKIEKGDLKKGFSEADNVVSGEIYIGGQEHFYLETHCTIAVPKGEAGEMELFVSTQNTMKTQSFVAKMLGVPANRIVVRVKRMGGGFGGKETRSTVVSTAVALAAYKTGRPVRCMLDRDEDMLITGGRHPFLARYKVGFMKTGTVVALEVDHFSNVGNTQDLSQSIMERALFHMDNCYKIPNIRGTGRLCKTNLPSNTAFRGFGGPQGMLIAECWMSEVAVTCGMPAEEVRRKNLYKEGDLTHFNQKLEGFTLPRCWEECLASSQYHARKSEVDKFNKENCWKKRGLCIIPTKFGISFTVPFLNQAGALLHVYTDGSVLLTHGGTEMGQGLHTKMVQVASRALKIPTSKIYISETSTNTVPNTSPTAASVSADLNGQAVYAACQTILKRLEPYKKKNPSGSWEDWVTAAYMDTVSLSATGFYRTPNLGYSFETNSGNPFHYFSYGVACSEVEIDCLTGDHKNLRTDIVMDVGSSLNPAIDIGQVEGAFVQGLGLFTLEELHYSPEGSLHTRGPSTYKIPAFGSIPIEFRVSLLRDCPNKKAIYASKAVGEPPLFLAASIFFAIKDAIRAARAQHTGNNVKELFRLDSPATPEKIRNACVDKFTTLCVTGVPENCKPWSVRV

Structure (SMILES): CCCCOc1ccc(-c2cc(=O)[nH]c(N)n2)cc1
IC50 [1]: 2.1 µM

Structure (SMILES): Nc1nc(O)cc(-c2ccc(Oc3ccccc3)cc2)n1
IC50 [1]: 2.47 µM

Structure (SMILES): Nc1nc(-c2ccc(O)cc2)cc(=O)[nH]1
IC50 [1]: > 30 µM

Structure (SMILES): CCCCSc1ccc(-c2cc(=O)[nH]c(N)n2)cc1
IC50 [1]: 1.63 µM

Structure (SMILES): CC(C)COc1ccc(-c2cc(O)nc(N)n2)cc1C#N
Activity (Rattus norvegicus [12]): inactive | Activity (Rattus norvegicus [13]): 124%

Structure (SMILES): CC(C)COc1ccc(-c2cc(O)nc(N)n2)cc1
half-life [3]: 3.42 h | AUC(0-inf) [4]: 5680 ng·h/mL | AUC(0-t) [5]: 4390 ng·h/mL | Cmax [6]: 5.16 µM | Tmax [7]: 0.5 h | Activity (Rattus norvegicus [13]): 77% | Efficacy (Rattus norvegicus [14]): 18% | Activity (Rattus norvegicus [15]): 23.7%

Structure (SMILES): CC(C)COc1ccc(-c2cc(=O)[nH]c(N)n2)cc1N
IC50 [1]: 6.72 µM

Structure (SMILES): CC(C)Sc1ccc(-c2cc(O)nc(N)n2)cc1
IC50 [1]: 2.44 µM

Structure (SMILES): CC(C)COc1ccc(-c2cc(=O)[nH]c(N)n2)cc1C#N
clearance [16]: 71.3 mL/min/kg | C0 [17]: 1360 ng/mL | Vd [18]: 3.83 L/kg | half-life [19]: 0.63 h | AUC(0-t) [20]: 470 ng·h/mL | AUC(0-inf) [21]: 480 ng·h/mL | Cmax [22]: 4.19 µM | Tmax [23]: 1.8 min | half-life [24]: 11.4 h | AUC(0-inf) [25]: 310 ng·h/mL | Cmax [26]: 0.23 µM | AUC(0-t) [27]: 200 ng·h/mL | Tmax [28]: 0.19 h

Structure (SMILES): Cc1nc(-c2ccc(OCC(C)C)c(C#N)c2)sc1C(=O)O [FEBUXOSTAT]
Activity (Rattus norvegicus [29]): 180% | Activity (Rattus norvegicus [13]): 181% | IC50 [1]: 0.03 µM

Structure (SMILES): CC(C)COc1ccc(-c2cc(O)nc(N)n2)cc1[N+](=O)[O-]
Tmax [2]: 2 h | Activity (Rattus norvegicus [13]): 133% | Activity (Rattus norvegicus [15]): 93% | AUC(0-inf) [8]: 17600 ng·h/mL | half-life [9]: 12.2 h | Cmax [10]: 9.59 µM | AUC(0-t) [11]: 14000 ng·h/mL | IC50 [1]: 0.14 µM

Structure (SMILES): Oc1ncnc2[nH]ncc12 [ALLOPURINOL]
Activity (Rattus norvegicus [29]): 130% | Activity (Rattus norvegicus [13]): 177%

Structure (SMILES): COc1cc(-c2cc(O)nc(N)n2)ccc1OCC(C)C
Tmax [2]: 2 h | Activity (Rattus norvegicus [30]): 55% | AUC(0-inf) [8]: 27700 ng·h/mL | half-life [9]: 0.85 h | Cmax [10]: 34.3 µM | AUC(0-t) [11]: 27600 ng·h/mL | IC50 [1]: 0.95 µM

The next lines start with the values.

Tmax [2]: 3.33 h | half-life [3]: 2.85 h | AUC(0-inf) [4]: 890 ng·h/mL | AUC(0-t) [5]: 600 ng·h/mL | Cmax [6]: 0.81 µM | Tmax [7]: 0.88 h | AUC(0-inf) [8]: 23100 ng·h/mL | half-life [9]: 5.52 h | Cmax [10]: 7.13 µM | AUC(0-t) [11]: 21900 ng·h/mL
Structure (SMILES): Nc1nc(-c2ccc(-c3ccccc3)cc2)cc(=O)[nH]1

IC50 [1]: 9.24 µM
Structure (SMILES): Nc1nc(O)cc(-c2ccc(OCCCO)cc2)n1

IC50 [1]: 16.5 µM
Structure (SMILES): Nc1nc(O)cc(-c2ccc(N3CCOCC3)cc2)n1

IC50 [1]: 4.95 µM
Structure (SMILES): CC(C)Cc1ccc(-c2cc(O)nc(N)n2)cc1

IC50 [1]: > 20 µM
Structure (SMILES): CC(C)COc1ccc(-c2cc(=O)[nH]c(N)n2)cc1OC(F)(F)F

half-life [3]: 6.59 h | AUC(0-inf) [4]: 4110 ng·h/mL | AUC(0-t) [5]: 4080 ng·h/mL | Cmax [6]: 23.5 µM | Tmax [7]: 0.25 h
Structure (SMILES): COc1ccc(-c2cc(=O)[nH]c(N)n2)cc1

IC50 [1]: 1.92 µM
Structure (SMILES): CC(C)COc1ccc(-c2cc(=O)[nH]c(N)n2)cc1C(N)=O
